ChEMBL document CHEMBL4680314, “Discovery of potent glycogen synthase kinase 3/cholinesterase inhibitors with neuroprotection as potential therapeutic agent for Alzheimer's disease” (Bioorg Med Chem, 2021)
Active and inactive are the calls of the source. The calls are words filed in the database; no cut-off is given here.

Assays:
[1] = Oral bioavailability in Sprague-Dawley rat at 10 mg/kg measured upto 24 hrs by LC-MS/MS analysis; type: ADME, organism-based; details: in vivo
[2] = Volume of distribution in Sprague-Dawley rat at 10 mg/kg, iv measured upto 24 hrs by LC-MS/MS analysis; type: ADME, organism-based; details: in vivo
[3] = Tmax in Sprague-Dawley rat at 10 mg/kg, iv measured upto 24 hrs by LC-MS/MS analysis; type: ADME, organism-based; details: in vivo
[4] = MRT (0 to t) in Sprague-Dawley rat at 10 mg/kg, po measured upto 24 hrs by LC-MS/MS analysis; type: ADME, organism-based; details: in vivo
[5] = Volume of distribution in Sprague-Dawley rat at 10 mg/kg, po measured upto 24 hrs by LC-MS/MS analysis; type: ADME, organism-based; details: in vivo
Cholinesterase = Cholinesterase (Homo sapiens, UniProt P06276); assay: Inhibition of human BChE using butyrylthiocholineiodide as substrate incubated for 10 mins by Ellman's method
Cholinesterase, sequence (P06276 whole entry): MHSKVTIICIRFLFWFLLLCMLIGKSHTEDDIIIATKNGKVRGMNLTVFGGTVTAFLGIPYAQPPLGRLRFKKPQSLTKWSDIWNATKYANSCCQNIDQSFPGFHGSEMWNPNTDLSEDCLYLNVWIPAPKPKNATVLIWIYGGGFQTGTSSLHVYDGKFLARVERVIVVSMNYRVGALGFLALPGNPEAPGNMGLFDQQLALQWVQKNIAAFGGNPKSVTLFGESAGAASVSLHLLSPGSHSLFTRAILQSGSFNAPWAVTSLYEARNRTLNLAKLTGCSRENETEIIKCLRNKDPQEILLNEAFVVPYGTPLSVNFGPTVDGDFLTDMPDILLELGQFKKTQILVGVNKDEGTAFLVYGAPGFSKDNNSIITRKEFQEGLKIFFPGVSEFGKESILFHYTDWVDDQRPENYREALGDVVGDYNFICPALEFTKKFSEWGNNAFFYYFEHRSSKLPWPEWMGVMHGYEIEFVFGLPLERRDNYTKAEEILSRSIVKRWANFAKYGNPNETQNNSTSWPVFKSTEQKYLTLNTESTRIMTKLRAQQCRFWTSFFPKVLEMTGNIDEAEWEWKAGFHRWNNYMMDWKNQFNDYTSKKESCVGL

[6] = AUC (0 to 24 hrs) in Sprague-Dawley rat at 10 mg/kg, po measured upto 24 hrs by LC-MS/MS analysis; type: ADME, organism-based; set-up: route oral, dose 10 mg/kg, time <=24; details: in vivo
[7] = Cmax in Sprague-Dawley rat at 10 mg/kg, po measured upto 24 hrs by LC-MS/MS analysis; type: ADME, organism-based; set-up: route oral, dose 10 mg/kg, time <=24; details: in vivo
[8] = Tmax in Sprague-Dawley rat at 10 mg/kg, po measured upto 24 hrs by LC-MS/MS analysis; type: ADME, organism-based; details: in vivo
[9] = MRT (0 to t) in Sprague-Dawley rat at 10 mg/kg, iv measured upto 24 hrs by LC-MS/MS analysis; type: ADME, organism-based; details: in vivo
[10] = Half life in Sprague-Dawley rat at 10 mg/kg, po measured upto 24 hrs by LC-MS/MS analysis; type: ADME, organism-based; details: in vivo
[11] = AUC (0 to 24 hrs) in Sprague-Dawley rat at 10 mg/kg, iv measured upto 24 hrs by LC-MS/MS analysis; type: ADME, organism-based; set-up: route intravenous, dose 10 mg/kg, time <=24; details: in vivo
[12] = Clearance in Sprague-Dawley rat at 10 mg/kg, iv measured upto 24 hrs by LC-MS/MS analysis; type: ADME, organism-based; details: in vivo
[13] = biological target: Glycogen synthase kinase-3 beta (Homo sapiens, UniProt P49841); assay: biochemical
Glycogen synthase kinase-3 beta, sequence (P49841 whole entry): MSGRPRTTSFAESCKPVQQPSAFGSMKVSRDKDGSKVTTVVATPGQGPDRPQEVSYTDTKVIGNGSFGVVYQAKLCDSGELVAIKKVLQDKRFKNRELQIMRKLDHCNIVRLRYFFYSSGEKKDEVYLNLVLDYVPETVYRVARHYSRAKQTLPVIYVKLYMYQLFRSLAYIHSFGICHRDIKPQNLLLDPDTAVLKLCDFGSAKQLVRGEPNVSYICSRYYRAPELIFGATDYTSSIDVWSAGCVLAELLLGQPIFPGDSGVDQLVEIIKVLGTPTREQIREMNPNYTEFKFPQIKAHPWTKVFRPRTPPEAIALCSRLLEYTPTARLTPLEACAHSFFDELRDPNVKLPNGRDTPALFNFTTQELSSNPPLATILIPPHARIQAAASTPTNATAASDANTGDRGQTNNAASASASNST
Description: Inhibition of recombinant human N-terminal His6-tagged GSK3beta H350L mutant expressed in baculovirus infected Sf21 cells using prephosphorylated polypeptide as substrate incubated for 1 min followed by substrate addition and measured after 30 mins by Kinase-Glo luminescence assay

[14] = Cmax in Sprague-Dawley rat at 10 mg/kg, iv measured upto 24 hrs by LC-MS/MS analysis; type: ADME, organism-based; set-up: route intravenous, dose 10 mg/kg, time <=24; details: in vivo
[15] = AUC (0 to infinity) in Sprague-Dawley rat at 10 mg/kg, po by LC-MS/MS analysis; type: ADME, organism-based; set-up: route oral, time infinity, dose 10 mg/kg; details: in vivo
in vitro = details: PAMPA
Description: Effective permeability of compound in PBS/EtOH buffer (7:3) at 25 ug/ml incubated for 18 hrs by PAMPA-BBB assay

[16] = Clearance in Sprague-Dawley rat at 10 mg/kg, po measured upto 24 hrs by LC-MS/MS analysis; type: ADME, organism-based; details: in vivo
Acetylcholinesterase = Acetylcholinesterase (Homo sapiens, UniProt P22303); assay: Inhibition of human recombinant AChE expressed in HEK293 cells using acetylthiocholine iodide as substrate incubated for 10 mins by Ellman's method; type: cell-based
Acetylcholinesterase, sequence (P22303 whole entry): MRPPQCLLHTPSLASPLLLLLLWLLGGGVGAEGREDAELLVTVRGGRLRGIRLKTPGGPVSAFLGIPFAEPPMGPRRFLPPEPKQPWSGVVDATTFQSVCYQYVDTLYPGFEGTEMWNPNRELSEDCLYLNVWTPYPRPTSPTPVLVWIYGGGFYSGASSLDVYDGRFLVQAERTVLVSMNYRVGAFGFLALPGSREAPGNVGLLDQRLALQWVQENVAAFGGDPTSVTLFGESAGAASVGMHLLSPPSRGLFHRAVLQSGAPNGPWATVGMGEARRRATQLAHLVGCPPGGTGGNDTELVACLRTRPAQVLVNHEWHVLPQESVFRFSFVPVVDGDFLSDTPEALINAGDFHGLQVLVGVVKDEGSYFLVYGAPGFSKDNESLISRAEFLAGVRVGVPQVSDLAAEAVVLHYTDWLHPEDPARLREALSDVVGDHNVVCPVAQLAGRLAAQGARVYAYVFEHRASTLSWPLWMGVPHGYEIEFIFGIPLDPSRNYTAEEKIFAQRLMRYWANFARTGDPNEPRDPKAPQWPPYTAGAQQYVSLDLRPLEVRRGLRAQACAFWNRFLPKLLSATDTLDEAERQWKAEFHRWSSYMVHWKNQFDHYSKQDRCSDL

[17] = Half life in Sprague-Dawley rat at 10 mg/kg, iv measured upto 24 hrs by LC-MS/MS analysis; type: ADME, organism-based; details: in vivo
[18] = AUC (0 to infinity) in Sprague-Dawley rat at 10 mg/kg, iv by LC-MS/MS analysis; type: ADME, organism-based; set-up: time infinity, route intravenous, dose 10 mg/kg; details: in vivo
BV-2 [19] = assay: Cytotoxicity against mouse BV-2 cells assessed as effect on cell morphology; type: cell-based
BV-2 [20] = assay: Anti-inflammatory activity in mouse BV-2 cells assessed as reduction in LPS-induced IL-1beta expression at 4 uM incubated for 1 hr followed by LPS stimulation and measured after 24 hrs by immunofluorescence based laser confocal microscopy; type: functional, cell-based; details: time 25.0 hrs
[21] = Half life in Sprague-Dawley rat at 5 mg/kg, iv measured upto 24 hrs by LC-MS/MS analysis; type: ADME, organism-based; details: in vivo
[22] = MRT (0 to t) in Sprague-Dawley rat at 5 mg/kg, iv measured upto 24 hrs by LC-MS/MS analysis; type: ADME, organism-based; details: in vivo
[23] = AUC (0 to infinity) in Sprague-Dawley rat at 5 mg/kg, iv by LC-MS/MS analysis; type: ADME, organism-based; set-up: route intravenous, dose 5 mg/kg; details: in vivo
[24] = Ratio of drug level in ICR mouse brain to blood at 15 mg/kg, po measured after 90 mins by LC-MS/MS analysis; type: ADME, organism-based; details: 1.5 h
[25] = Volume of distribution in Sprague-Dawley rat at 5 mg/kg, iv measured upto 24 hrs by LC-MS/MS analysis; type: ADME, organism-based; details: in vivo
BV-2 [26] = assay: Anti-inflammatory activity in mouse BV-2 cells assessed as reduction in LPS-induced ROS production at 3 uM incubated for 1 hr followed by LPS stimulation and measured after 24 hrs by DCFH-DA staining based inverted fluorescence microscopy; type: functional, cell-based; details: time 25.0 hrs
[27] = Toxicity in ICR mouse model of scopolamine-induced cognitive dysfunction assessed as effect on locomotor activity by measuring effect on swimming speed at 15 mg/kg, po by Morris water maze test; type: organism-based; details: in vivo
[28] = Tmax in Sprague-Dawley rat at 5 mg/kg, iv measured upto 24 hrs by LC-MS/MS analysis; type: ADME, organism-based; details: in vivo
[29] = Plasma concentration in ICR mouse at 15 mg/kg, po measured after 90 mins by LC-MS/MS analysis; type: ADME, organism-based
BV-2 [30] = assay: Anti-inflammatory activity in mouse BV-2 cells assessed as reduction in LPS-induced TNFalpha production incubated for 1 hr followed by LPS stimulation and measured after 24 hrs by ELISA; type: functional, cell-based; details: dose 2-8 µM, time 25.0 hrs
[31] = Cmax in Sprague-Dawley rat at 5 mg/kg, iv measured upto 24 hrs by LC-MS/MS analysis; type: ADME, organism-based; set-up: route intravenous, dose 5 mg/kg, time <=24; details: in vivo
[32] = Clearance in Sprague-Dawley rat at 5 mg/kg, iv measured upto 24 hrs by LC-MS/MS analysis; type: ADME, organism-based; details: in vivo
[33] = Drug uptake in mouse BV-2 cells at 25 uM incubated for 1 hr measured per million cells by LC-MS/MS analysis; type: ADME, cell-based; details: bv-2, 1 h
[34] = AUC (0 to 24 hrs) in Sprague-Dawley rat at 5 mg/kg, iv measured upto 24 hrs by LC-MS/MS analysis; type: ADME, organism-based; set-up: route intravenous, dose 5 mg/kg, time <=24; details: in vivo
BV-2 [35] = assay: Anti-inflammatory activity in mouse BV-2 cells assessed as reduction in LPS-induced TNFalpha expression at 4 uM incubated for 1 hr followed by LPS stimulation and measured after 24 hrs by immunofluorescence based laser confocal microscopy; type: functional, cell-based; details: time 25.0 hrs
[36] = Toxicity in ICR mouse assessed as reduction in body weight at 15 mg/kg, po; type: organism-based; details: in vivo
BV-2 [37] = assay: Anti-inflammatory activity in mouse BV-2 cells assessed as reduction in LPS-induced IL-1beta production incubated for 1 hr followed by LPS stimulation and measured after 24 hrs by ELISA; type: functional, cell-based; details: dose 2-8 µM, time 25.0 hrs

## NC(=O)c1sc(-c2ccnc(NC(=O)C3CC3)c2)nc1OCC1CCN(Cc2ccccc2)CC1
[1]
  bioavailability: 40.7%
[2]
  Vd: 55.2 L/kg
[3]
  Tmax: 6 min
[4]
  MRT last at 24 h: 8.1 h
[5]
  Vd: 93.6 L/kg
Cholinesterase
  IC50: 12.7 µM
[6]
  AUC(0-t): 622 ng·h/mL
[7]
  Cmax: 67.3 ng/mL
[8]
  Tmax: 4.5 h
[9]
  MRT last at 24 h: 9.1 h
[10]
  half-life: 4.5 h
[11]
  AUC(0-t): 1540 ng·h/mL
[12]
  clearance: 104 mL/min/kg
[13]
  IC50: 0.094 µM
[14]
  Cmax: 507 ng/mL
[15]
  AUC(0-inf): 688 ng·h/mL
In vitro
  Papp at 18 h, 25 ug/ml: 6.4 ×10⁻⁶ cm/s
[16]
  CL/F: 267 mL/min/kg
Acetylcholinesterase
  IC50: 1.5 µM
[17]
  half-life: 6.7 h
[18]
  AUC(0-inf): 1820 ng·h/mL

## NC(=O)c1sc(-c2ccnc(NC(=O)C3CC3)c2)nc1OCCC1CCN(Cc2ccc(F)c(F)c2)CC1
Cholinesterase
  IC50: 7.2 µM
[13]
  IC50: 0.01 µM
Acetylcholinesterase
  IC50: 42.8 µM

## NC(=O)c1sc(-c2ccnc(NC(=O)C3CC3)c2)nc1OCCCC1CCN(Cc2cccc(F)c2)CC1
Cholinesterase
  IC50: 1.8 µM
[13]
  IC50: 0.009 µM
In vitro
  Papp at 18 h, 25 ug/ml: 8.6 ×10⁻⁶ cm/s
Acetylcholinesterase
  IC50: 3 µM

## NC(=O)c1sc(-c2ccnc(NC(=O)C3CC3)c2)nc1OCCCC1CCN(Cc2ccccc2)CC1
BV-2 [19]
  Activity: Non-Toxic
BV-2 [20]
  Activity: Active
[21]
  half-life: 6.3 h
[22]
  MRT last at 24 h: 5.1 h
[1]
  bioavailability: 15.1%
[23]
  AUC(0-inf): 1760 ng·h/mL
[4]
  MRT last at 24 h: 9.2 h
[24]
  Ratio: 9.2 ng/kg
[5]
  Vd: 77 L/kg
Cholinesterase
  IC50: 20.6 µM
[25]
  Vd: 30.7 L/kg
[6]
  AUC(0-t): 440 ng·h/mL
[7]
  Cmax: 44.1 ng/mL
BV-2 [26]
  Activity: Active
[27]
  Activity: Non-Toxic
[8]
  Tmax: 8 h
[28]
  Tmax: 4.98 min
[29]
  concentration at 1.5 h: 84.9 ng/mL
[10]
  half-life: 3.9 h
BV-2 [30]
  Activity: Dose-dependent effect
[31]
  Cmax: 771 ng/mL
[32]
  clearance: 50.1 mL/min/kg
[13]
  IC50: 0.008 µM
[33]
  Drug uptake: 103 ng
[34]
  AUC(0-t): 1680 ng·h/mL
BV-2 [35]
  Activity: Active
[15]
  AUC(0-inf): 453 ng·h/mL
In vitro
  Papp at 18 h, 25 ug/ml: 10.9 ×10⁻⁶ cm/s
[16]
  CL/F: 296 mL/min/kg
Acetylcholinesterase
  IC50: 0.38 µM
[36]
  Activity: Non-Toxic
BV-2 [37]
  Activity: Dose-dependent effect

## NC(=O)c1sc(-c2ccnc(NC(=O)C3CC3)c2)nc1OCCC1CCN(Cc2ccc(F)cc2)CC1
Cholinesterase
  IC50: 17.6 µM
[13]
  IC50: 0.038 µM
In vitro
  Papp at 18 h, 25 ug/ml: 8.2 ×10⁻⁶ cm/s
Acetylcholinesterase
  IC50: 4.5 µM

## CNC(=O)c1sc(-c2ccnc(NC(=O)C3CC3)c2)nc1OCC1CCN(Cc2ccc(Cl)cc2)CC1
Cholinesterase
  IC50: 297 µM
[13]
  IC50: 0.045 µM
Acetylcholinesterase
  IC50: 82 µM

## CNC(=O)c1sc(-c2ccnc(NC(=O)C3CC3)c2)nc1OCC1CCN(Cc2ccc(F)c(F)c2)CC1
Cholinesterase
  IC50: 20 µM
[13]
  IC50: 0.062 µM
Acetylcholinesterase
  IC50: 80 µM

## NC(=O)c1sc(-c2ccnc(NC(=O)C3CC3)c2)nc1OCCCC1CCN(Cc2ccccc2F)CC1
Cholinesterase
  IC50: 4.2 µM
[13]
  IC50: 0.015 µM
In vitro
  Papp at 18 h, 25 ug/ml: 7.1 ×10⁻⁶ cm/s
Acetylcholinesterase
  IC50: 1.32 µM

## NC(=O)c1sc(-c2ccnc(NC(=O)C3CC3)c2)nc1OCCC1CCN(Cc2ccccn2)CC1
Cholinesterase
  IC50: 86.1 µM
[13]
  IC50: 0.193 µM
Acetylcholinesterase
  IC50: 6.6 µM

## CNC(=O)c1sc(-c2ccnc(NC(=O)C3CC3)c2)nc1OCC1CCN(Cc2ccccc2F)CC1
Cholinesterase
  IC50: 11 µM
[13]
  IC50: 0.014 µM
Acetylcholinesterase
  IC50: 9 µM

## COc1cc2c(cc1OC)C(=O)C(CC1CCN(Cc3ccccc3)CC1)C2 (centres undefined) [DONEPEZIL]
[13]
  IC50: > 1 µM

## CNC(=O)c1sc(-c2ccnc(NC(=O)C3CC3)c2)nc1OC1CCN(Cc2ccccc2)CC1
Cholinesterase
  IC50: 31 µM
[13]
  IC50: 0.007 µM
Acetylcholinesterase
  IC50: 73 µM
